pIC50: −log10 of the molar value.
Target: T1, Histone deacetylase (Plasmodium falciparum (isolate 3D7), UniProt Q7K6A1)
T1 sequence (Q7K6A1 whole entry): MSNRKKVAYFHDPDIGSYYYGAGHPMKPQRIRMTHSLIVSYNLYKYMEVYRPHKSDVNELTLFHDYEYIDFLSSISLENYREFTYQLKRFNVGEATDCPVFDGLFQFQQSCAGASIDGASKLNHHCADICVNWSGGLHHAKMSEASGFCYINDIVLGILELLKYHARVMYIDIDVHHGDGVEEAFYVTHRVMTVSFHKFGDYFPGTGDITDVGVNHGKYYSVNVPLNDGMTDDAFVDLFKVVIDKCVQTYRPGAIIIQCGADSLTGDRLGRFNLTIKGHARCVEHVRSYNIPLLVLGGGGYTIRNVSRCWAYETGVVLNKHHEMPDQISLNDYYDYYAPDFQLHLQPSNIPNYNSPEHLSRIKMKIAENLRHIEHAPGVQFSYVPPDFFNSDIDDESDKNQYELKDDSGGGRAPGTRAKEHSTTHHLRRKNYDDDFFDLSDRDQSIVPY
Assay: pfHDAC-1 Enzyme Assay
Settings: pH 7.5; 23 °C
Procedure: Recombinant pfHDAC-1 was assayed with substrate in the presence of test compound. […] The reaction was allowed to proceed at room temperature for 15 hrs in sealed plates to minimize evaporation. […] Fluorescence was monitored after 1 hr at excitation and emission wavelengths of 360 and 460 nm, respectively. Kinetic constants were calculated by non-linear regression fitting of the data to the Michaelis-Menten equation. Kinetic and inhibition values reported are the mean of three determinations +/- standard deviation.

Row | Compound | pIC50
1 | O=C(CCCCC(=O)NN=Cc1ccc(B(O)O)cc1)NO [benzylidenehydrazine derivative, 24] | 7.35
2 | O=C(CCCCCC(=O)NN=Cc1c(O)ccc2ccccc12)NO [benzylidenehydrazine derivative, 14] | 7.39
3 | O=C(CCCCCC(=O)NN=Cc1cc(O)ccc1Br)NO [benzylidenehydrazine derivative, 15] | 7.31
4 | O=C(CCCCCC(=O)NN=Cc1cc2c(cc1Br)OCO2)NO [benzylidenehydrazine derivative, 10] | 7.70
5 | O=C(CCCCCC(=O)NN=Cc1ccc(-n2ccnc2)cc1)NO [benzylidenehydrazine derivative, 19] | 7.82
6 | COc1cc(C=NNC(=O)CCCCC(=O)NO)c(Br)cc1O [benzylidenehydrazine derivative, 23] | 7.23
7 | O=C(CCCCCC(=O)NN=Cc1ccccc1Cl)NO [benzylidenehydrazine derivative, 18] | 7.05
8 | COc1cc(C=NNC(=O)CCCCCC(=O)NO)c(Br)cc1O [benzylidenehydrazine derivative, 17] | 7.23
9 | O=C(CCCCCC(=O)NN=Cc1ccccc1Br)NO [benzylidenehydrazine derivative, 16] | 7.43
10 | O=C(CCCCC(=O)NN=Cc1ccc(O)cc1Br)NO [benzylidenehydrazine derivative, 21] | 6.97
11 | O=C(CCCCC(=O)NN=Cc1cc(O)ccc1Br)NO [benzylidenehydrazine derivative, 22] | 7.05
12 | COc1ccc(Br)c(C=NNC(=O)CCCCCC(=O)NO)c1 [benzylidenehydrazine derivative, 12] | 7.66
13 | O=C(CCCCCCC(=O)NN=Cc1cc(O)ccc1O)NO [benzylidenehydrazine derivative, 9] | 6.96
14 | O=C(CCCCCC(=O)NN=Cc1cccc(O)c1)NO [benzylidenehydrazine derivative, 8] | 7.23
15 | O=C(CCCCCC(=O)NN=Cc1cccnc1Br)NO [benzylidenehydrazine derivative, 20] | 7.44
16 | O=C1CCc2c(ccc3ccccc23)O1 [1,2-Dihydro-3H-naphtho[2,1-b]pyran-3-one] | < 5.00
17 | O=C(CCCCCCC(=O)NN=Cc1c(O)cc(O)cc1O)NO [benzylidenehydrazine derivative, 11] | 7.37
18 | CN(C)c1ccc(C=NNC(=O)CCCCCC(=O)NO)c(O)c1 [benzylidenehydrazine derivative, 13] | 7.43

From BindingDB's records for doi:10.1021/jm801654y (Harvard Medical School, 2009)
